# Data: patent US10526581B2, “Modulation of cardiac stem-progenitor cell differentiation, assays and uses thereof” (priority 2013, dated 2020)
# Experiments:
# [1] = system: mouse heart; experiment: ISO injury in Lenti-c-kit/Cre recombined RYP mice (c-kit^pos eCSC fate map); type: in vivo; settings: 28 days after ISO
# [2] = system: mouse heart; experiment: ISO injury in CM-recombined MerCreMer-ZEG and MerCreMer:RYP mice (lineage tracing of new CMs); type: in vivo; settings: 28 days after ISO
# Description: BrdU labeling and Ki67 expression by itself cannot establish whether the new CMs are generated by the reported division of pre-existing adult CMs or by the activation and ensuing differentiation of a stem-progenitor cell compartment. To specifically address this issue, we traced the cell lineage of the new CMs. We generated double-transgenic mice (MerCreMer-ZEG) (Hsieh et al., 2007; Loffredo et al., 2011) in which, upon tamoxifen administration, β-galactosidase (β-Gal) is replaced by enhanced green fluorescent protein (GFP) exclusively in cardiac cells which have already activated the Myh6 gene (and, therefore, the transgene carrying the cre recombinase gene) which are either post-mitotic CMs or amplifying cells already committed to the CM lineage (i.e., immature myocytes/myocyte precursors).
# In tamoxifen-naïve MerCreMer-ZEG mice, 99±0.2% of the CMs express β-Gal and are negative for GFP (the leakage of the Myh6-Cre construct in these animals is ˜0.2%). Tamoxifen correctly switched β-Gal to GFP in CMs (FIG. 15A-C). […] In this setting, if new CMs (BrdU^pos) originated from division of pre-existing CMs they should be more GFP^pos and the ratio between GFP^pos and β-Gal^pos CMs should remain unchanged at ˜80/20. If instead, the new CMs originate from non-CM cells, they should be β-Gal^pos and produce a “dilution” of GFP^pos CMs with a decrease of the GFP^pos/β-Gal^pos CM ratio (FIG. 15A).
# In mice, ISO injection caused the same type of myocardial damage and LV dysfunction shown in rats, resulting in c-kit^poseCSC activation, CM regeneration and recovery of cardiac function (FIG. 22). […] These numbers match the CM loss produced by ISO administration (FIG. 22). In contrast, we detected very few newly generated, BrdU^posβ-Gal^pos, CMs (0.15±0.05%) in saline-treated CTRL mice (FIG. 15E). […] This discrepancy might be due to the different injury models used. In contrast to coronary ligation, although ISO kills a large number of CMs, because it leaves a patent coronary circulation the eCSCs are spared and provides a more physiologic test for the endogenous reparative potential of the adult heart (Ellison et al., 2007b). Furthermore, during the two-week administration of tamoxifen for Cre induction it would be expected that some eCSCs have committed to the myogenic lineage and activated the Myh6 gene with recombination of the transgene and generation of […], as reported by Dong et al. (2012).
# Finally, we dissociated to single cells CMs from the hearts of double transgenic MerCreMer:RYP mice obtained by crossing MerCreMer with R26R-EYFP (RYP) mice (Qian et al., 2012), in which the CMs were labeled with the enhanced yellow fluorescent protein (EYFP) upon tamoxifen injection. […]
# [3] = system: rats after ISO damage; settings: at 28 days
# [4] = system: rats with ISO+5-FU cardiomyopathy; experiment: echocardiography after tail vein cell injection in ISO+5-FU cardiomyopathy; type: in vivo, rat; settings: (84 d) 3 months
# [5] = system: adult myocytes isolated from Tg^c-kit/GFP mice; experiment: ISO in vitro on adult myocytes isolated from Tg^c-kit/GFP mice; type: cell-based, mouse; settings: ISO 10 nM, cultured for 48 hrs
smiles,measurement,setting,value
"CC(C)NCC(O)c1ccc(O)c(O)c1 (stereo not shown) [ISO, isoproterenol]",newly-formed (BrdU^pos) CMs,[1],9.5±2%
same,YFP^pos cells in the unfixed CM preparation (FACS),[1]; LV apex,8.3±1%
same,"EYFP positive CMs, % of total BrdU^pos CMs",[1]; LV,43±3%
same,"EYFP positive CMs, % of total BrdU^pos CMs",[1]; apex,74±7%
same,YFP^pos cells in the unfixed CM preparation (FACS),[1]; total LV,2.9±0.5%
same,BrdU^pos CMs,[2]; MerCreMer/ZEG mice,9±2%
same,GFP^pos CMs,[2]; MerCreMer/ZEG mice,73.5±3.5%
same,β-Gal^pos CMs,[2]; MerCreMer/ZEG mice,26.5±2%
same,YFP-marked endogenous CMs,"[2]; MerCreMer:RYP mice, apex (and sub-endocardium)",~72%
same,mortality,[3],0 of 10
same,EF,[4],88.6 ± 2.56%
same,FS,[4],51.7 ± 3.7%
same,LVIDd,[4],5.25 ± 0.42 mm
same,LVIDs,[4],2.53 ± 0.31 mm
same,ANP expression (fetal myocyte gene program),[5],increased ANP expression
same,c-kit/GFP transcription in adult myocytes,[5],unable to activate
